Laboratory results taken from patent publication US20210196654A1, “METHOD OF TREATING CONDITIONS” (Clexio Biosciences Ltd., priority 2019, published 2021).
Read-outs that look alike come from different tables or passages of the source.

Assays:
[1] = test system: human peripheral blood lymphocytes (HPBL)
Protocol: (§1) The clastogenic potential of (S)-norketamine was evaluated in the in vitro mammalian chromosome aberration test using human peripheral blood lymphocytes (HPBL) in both the absence and presence of an induced metabolic activation system (the 9000 g supernatant [S9] microsomal fraction of liver homogenate from rats exposed to phenobarbital/5,6-benzoflavone).
The study was conducted in 2 phases, with a preliminary toxicity test used to determine the appropriate concentrations for the definitive chromosomal aberration assay. Water was used as a negative (vehicle) control. In both phases, the cells were treated for 3 and 21 hours in the absence of S9 mix and for 3 hours in the presence of S9 mix. The mitotic index was assessed for all cultures to determine cytotoxicity. Ten concentrations, ranging from […], were evaluated in the preliminary toxicity test.

[2] = test system: human peripheral blood lymphocytes (HPBL); remark: listed apart in the source
Protocol: as §1, with “esketamine” for “(S)-norketamine”, “Aroclor-1254).” for “phenobarbital/5,6-benzoflavone).”
The study was conducted in 2 phases, with a preliminary toxicity test used to determine the appropriate concentrations for the definitive chromosomal aberration assay. Water was used as a negative (vehicle) control. Toxicity (defined as >45% reduction in MI relative to the vehicle control) was evaluated at 9 concentrations, ranging from 0.0238 to 238 μg/ml, after exposure of HPBL to esketamine for 20 hours in the absence of S9 activation, or for 4 hours, either in the presence or absence of S9 activation, followed by a 16-hour recovery period.
The definitive chromosome aberration assay evaluated HPBL cells after exposure to esketamine for 20 hours in the absence of S9 activation, or for 4 hours, either in the presence of absence of S9 activation, followed by a 16-hour recovery. Positive controls for chromosomal aberrations in non-activated and S9-activated evaluations, respectively, consisted of mitomycin C (MMC, 0.6 and 0.3 μg/mL for the 4- and 20-hour exposures, respectively) and cyclophosphamide (CP, 2.5, 5, and 7.5 μg/mL). […] Initially, the doses selected for evaluation of chromosomal aberrations were 60, 120, and 238 μg/mL for the non-activated 4- and 20-hour treatment conditions; and 30, 60, and 200 μg/mL for the S9-activated 4-hour treatment condition.

[3] = Single dose crossover study in healthy volunteers, pharmacokinetics; details: both, human, plasma; for AUC(0-inf): AUC0-inf; for AUC(0-inf) / AUC(0-t) / Cmax: geometric mean; for AUC(0-t): AUC0-t; for Cmax: 15 subjects; for half-life: t1/2, geometric mean; for Tmax: median
Text: A randomized, open-label 4-way crossover study in 16 healthy male and female subjects was held wherein said subjects were placed in a randomly assigned order and administered esketamine. Each subject was assigned to 1 of 4 treatment sequences according to a randomization code such that 4 subjects were assigned to each treatment sequence. There was a wash-out period of at least 7 days between dosing periods with doses consisting of either oral or intravenous esketamine hydrochloride. The study consisted of an eligibility screening period of 28 days, 4 study periods involving administration of a single dose of esketamine hydrochloride followed by safety assessments with blood sampling for PK purposes up to 72 hours after study drug administration, discharge at 72 hours after study drug administration and a follow-up visit 7-14 days after the last PK blood sample was taken on Day 4.

[4] = test system: Generalized Anxiety and Social Anxiety Disorder patients; details: treatment-refractory patients; cited from earlier work
[5] = test system: bipolar disorder; details: intravenous; cited from earlier work
[6] = test system: Parkinson's disease sufferers; details: cited from earlier work
[7] = Yanagihara et al (2003); cited from earlier work
[8] = test system: chronic pain; details: oral; cited from earlier work
[9] = test system: animal models of depression; details: cited from earlier work
[10] = iv, 0.3 mg/kg, plasma analyte after single dose esketamine 0.3 mg/kg iv
[11] = po, 20 mg, plasma analyte after single dose esketamine 20 mg oral solution
[12] = po, 20 mg, plasma analyte after single dose esketamine 20 mg oral tablet
[13] = po, 100 mg, plasma analyte after single dose esketamine 100 mg oral tablet
[14] = S9-activated system, positive control

Compound	AUC(0-inf) [3, 10]	AUC(0-t) [3, 10]	Cmax [3, 10]	half-life [3, 10]	Tmax [3, 10]	AUC(0-inf) [3, 11]	AUC(0-inf) [3, 12]	AUC(0-t) [3, 11]	AUC(0-t) [3, 12]	Cmax [3, 11]	Cmax [3, 12]	half-life [3, 11]	half-life [3, 12]	Tmax [3, 11]	Tmax [3, 12]	AUC(0-inf) [3, 13]	AUC(0-t) [3, 13]	Cmax [3, 13]	half-life [3, 13]	Tmax [3, 13]	other results
CO[C@@]12[C@H](COC(N)=O)C3=C(C(=O)C(C)=C(N)C3=O)N1C[C@@H]1N[C@@H]12 [MMC, mitomycin C]	–	–	–	–	–	–	–	–	–	–	–	–	–	–	–	–	–	–	–	–	proportion of aberrant cells [1]: statistically significant increases; cells with structural chromosomal aberrations [2]: 13.3%; mean MI value ([2]; non-activated systems, positive control): 9%
N[C@]1(c2ccccc2Cl)CCCCC1=O [(S)-norketamine, (2S)-2-(2-Chlorophenyl)-2-(amino) cyclohexanone]	441 ng·h/mL	426 ng·h/mL	42.2 ng/mL	11.3 h	1.25 h	417 ng·h/mL	429 ng·h/mL	405 ng·h/mL	418 ng·h/mL	99.8 ng/mL	89.7 ng/mL	8.88 h	8.75 h	0.75 h	1 h	2280 ng·h/mL	2270 ng·h/mL	352 ng/mL	9.27 h	1 h	Toxicity (mitotic index), preliminary toxicity test [1]: not observed at any dose; clastogenicity, conclusion [1]: non-clastogenic; proportion of metaphase figures containing chromosomal aberrations vs vehicle control [1]: no statistically significant increases; proportion of polyploid or endoreduplicated metaphase cells vs vehicle control ([1]; any treatment condition): No statistically significant increases
CNC1(c2ccccc2Cl)CCCCC1=O (stereo not drawn) [ketamine, dl 2-(2-chlorophenyl)-2(methylamino) cyclohexanone]	–	–	–	–	–	–	–	–	–	–	–	–	–	–	–	–	–	–	–	–	anxiety ratings [4]: improvement in anxiety ratings within an hour of ketamine dosing which persisted for up to a week; effect in bipolar disorder [5]: robust and rapid effect; levodopa induced dyskinesia [6]: could reduce levodopa induced dyskinesia; nasal bioavailability [7]: 45%; chronic pain [8]: could reduce chronic pain
N[C@]1(c2ccccc2Cl)CCC[C@H](O)C1=O [(2S,6S)-OH-Norketamine, (2S,6S)-2-Amino-2-(2-chlorophenyl)-6-hydroxycyclohexanone]	390 ng·h/mL	376 ng·h/mL	24.8 ng/mL	10.7 h	3 h	378 ng·h/mL	401 ng·h/mL	366 ng·h/mL	390 ng·h/mL	46.5 ng/mL	45.8 ng/mL	7.83 h	7.77 h	1 h	1.5 h	1960 ng·h/mL	1950 ng·h/mL	189 ng/mL	8.92 h	2 h	–
O=P1(N(CCCl)CCCl)NCCCO1 (centres unmarked) [CP, cyclophosphamide]	–	–	–	–	–	–	–	–	–	–	–	–	–	–	–	–	–	–	–	–	proportion of aberrant cells ([1]; positive control compounds): statistically significant increases; cells with structural aberrations [2, 14]: 10.7%; mean MI value [2, 14]: 6.2%
CN[C@@]1(c2ccccc2Cl)CCCCC1=O [(R)-ketamine, (2R)-2-(2-Chlorophenyl)-2-(methylamino) cyclohexanone]	–	–	–	–	–	–	–	–	–	–	–	–	–	–	–	–	–	–	–	–	antidepressant effects compared with esketamine [9]: greater potency and longer-lasting antidepressant effects than esketamine
